# Reference: PubChem BioAssay AID1963866 (Molecular Pharmacology Branch, DTP, NCI, 2024)
# Activity calls are given as the source filed them. The calls were made as follows: active = viability on the fitted dose curve at most 10% of control; inactive = the rest.
# System: PDC KRAS tumor spheroids with HUVEC/MSC, viability
# Test: Anticancer human tumor 349418-098-R-PDC patient-derived lung adenocarcinoma cell line growth inhibition [KRAS2]
# Details: for IC50: curve of first compound; for viability, T/C: stronger effect = lower value
# Method in brief: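 Combination screen of spheroid viability in tumor-cell co-cultures with endothelial (HUVEC) and mesenchymal stem cell stroma. Each agent was tested in half-log dilutions, topping at clinical Cmax or at 10 microM without a known Cmax.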
# [1] = second compound 0.1 µM, first compound 0.0316 µM
# [2] = second compound 0.1 µM, first compound 0.1 µM
# [3] = second compound 0.1 µM, first compound 0.316 µM
# [4] = second compound 0.1 µM, first compound 1 µM
# [5] = second compound 0.1 µM, first compound 3.16 µM
# [6] = second compound 0.1 µM, first compound 10 µM
# [7] = second compound 0.316 µM, first compound 0.0316 µM
# [8] = second compound 0.316 µM, first compound 0.1 µM
# [9] = second compound 0.316 µM, first compound 0.316 µM
# [10] = second compound 0.316 µM, first compound 1 µM
# [11] = second compound 0.316 µM, first compound 3.16 µM
# [12] = second compound 0.316 µM, first compound 10 µM
# [13] = second compound 1 µM, first compound 0.0316 µM
# [14] = second compound 1 µM, first compound 0.1 µM
# [15] = second compound 1 µM, first compound 0.316 µM
# [16] = second compound 1 µM, first compound 1 µM
# [17] = second compound 1 µM, first compound 3.16 µM
# [18] = second compound 1 µM, first compound 10 µM
# [19] = second compound 3.16 µM, first compound 0.0316 µM
# [20] = second compound 3.16 µM, first compound 0.1 µM
# [21] = second compound 3.16 µM, first compound 0.316 µM
# [22] = second compound 3.16 µM, first compound 1 µM
# [23] = second compound 3.16 µM, first compound 3.16 µM
# [24] = second compound 3.16 µM, first compound 10 µM
# [25] = second compound 10 µM, first compound 0.0316 µM
# [26] = second compound 10 µM, first compound 0.1 µM
# [27] = second compound 10 µM, first compound 0.316 µM
# [28] = second compound 10 µM, first compound 1 µM
# [29] = second compound 10 µM, first compound 3.16 µM
# [30] = second compound 10 µM, first compound 10 µM
# 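Also: spheroids exposed to compounds for seven days before readout.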
Structure (SMILES),IC50 (second compound 0.1 µM),IC50 (second compound 0.316 µM),IC50 (second compound 1 µM),IC50 (second compound 3.16 µM),IC50 (second compound 10 µM),"viability, T/C [1]","viability, T/C [2]","viability, T/C [3]","viability, T/C [4]","viability, T/C [5]","viability, T/C [6]","viability, T/C [7]","viability, T/C [8]","viability, T/C [9]","viability, T/C [13]","viability, T/C [14]","viability, T/C [19]","viability, T/C [20]","viability, T/C [25]","viability, T/C [26]",further results
CC(C)NCC(C(=O)N1CCN(c2ncnc3c2C(C)CC3O)CC1)c1ccc(Cl)cc1 (stereo not given) + COc1cc2nc(C)nc(NC(C)c3cc(N)cc(C(F)(F)F)c3)c2cc1OC1CCOC1,279 nM,270 nM,178 nM,146 nM,< 31.6 nM,98.1%,73%,49.4%,23.1%,10.2%,6.37%,85.4%,77%,44.8%,93%,66.4%,71.9%,58.3%,26.9%,20.7%,"viability, T/C [10]: 18.9%; viability, T/C [11]: 7.59%; viability, T/C [12]: 6.32%; viability, T/C [15]: 31.4%; viability, T/C [16]: 22%; viability, T/C [17]: 6.85%; viability, T/C [18]: 3.87%; outcome [21]: inactive; viability, T/C [22]: 13.9%; viability, T/C [23]: 6.58%; viability, T/C [24]: 5.75%; viability, T/C [27]: 7.61%; viability, T/C [28]: 3.94%; viability, T/C [29]: 1.89%; viability, T/C [30]: 2.67%"
CC1(C)CCC(CN2CCN(c3ccc(C(=O)NS(=O)(=O)c4ccc(NCC5CCOCC5)c([N+](=O)[O-])c4)c(Oc4cnc5[nH]ccc5c4)c3)CC2)=C(c2ccc(Cl)cc2)C1 + COc1cc2nc(C)nc(NC(C)c3cc(N)cc(C(F)(F)F)c3)c2cc1OC1CCOC1,1770 nM,1860 nM,1760 nM,1560 nM,< 31.6 nM,104%,103%,105%,85.1%,14%,5.48%,104%,97.9%,95.3%,102%,94.2%,78.9%,93.9%,35.2%,32.9%,"viability, T/C [10]: 90.6%; viability, T/C [11]: 15.3%; viability, T/C [12]: 4.54%; viability, T/C [15]: 95.7%; viability, T/C [16]: 86.1%; viability, T/C [17]: 12.8%; viability, T/C [18]: 3.87%; viability, T/C [21]: 86%; viability, T/C [22]: 75.1%; viability, T/C [23]: 10.2%; viability, T/C [24]: 5.85%; viability, T/C [27]: 32.3%; viability, T/C [28]: 21.9%; viability, T/C [29]: 4.35%; viability, T/C [30]: 2.8%"
Cn1ncnc1[C@H]1c2n[nH]c(=O)c3cc(F)cc(c23)N[C@@H]1c1ccc(F)cc1 + COc1cc2nc(C)nc(NC(C)c3cc(N)cc(C(F)(F)F)c3)c2cc1OC1CCOC1,> 100 nM,> 100 nM,> 100 nM,> 100 nM,< 0.316 nM,91.6%,82.4%,,,,,88.3%,81.1%,,83.4%,77.7%,74.1%,78.1%,31%,24.3%,"viability, T/C (second compound 0.1 µM, first compound 0.000316 µM): 103%; viability, T/C (second compound 0.1 µM, first compound 0.001 µM): 99.9%; viability, T/C (second compound 0.1 µM, first compound 0.00316 µM): 100%; viability, T/C (second compound 0.1 µM, first compound 0.01 µM): 95.8%; viability, T/C (second compound 0.316 µM, first compound 0.000316 µM): 97%; viability, T/C (second compound 0.316 µM, first compound 0.001 µM): 92.7%; viability, T/C (second compound 0.316 µM, first compound 0.00316 µM): 97.2%; viability, T/C (second compound 0.316 µM, first compound 0.01 µM): 89.5%; viability, T/C (second compound 1 µM, first compound 0.000316 µM): 97.3%; viability, T/C (second compound 1 µM, first compound 0.001 µM): 97%; viability, T/C (second compound 1 µM, first compound 0.00316 µM): 93.9%; viability, T/C (second compound 1 µM, first compound 0.01 µM): 87.5%; viability, T/C (second compound 3.16 µM, first compound 0.000316 µM): 92.5%; viability, T/C (second compound 3.16 µM, first compound 0.001 µM): 88.6%; viability, T/C (second compound 3.16 µM, first compound 0.00316 µM): 86.3%; viability, T/C (second compound 3.16 µM, first compound 0.01 µM): 85.2%; viability, T/C (second compound 10 µM, first compound 0.000316 µM): 36.2%; viability, T/C (second compound 10 µM, first compound 0.001 µM): 20.6%; viability, T/C (second compound 10 µM, first compound 0.00316 µM): 23%; viability, T/C (second compound 10 µM, first compound 0.01 µM): 23.2%"
